Test results reported in US7635722B1, “Chemical induced intracellular hyperthermia” (priority 1998, dated 2009).

Tests used:
[1] = system: arterial catheter balloon injury; test: arterial catheter balloon injury after DNP pretreatment; format: in vivo, Sprague-Dawley rats; settings: rats pretreated with DNP induced hyperthermia (FIG. 21)
Source text: (§1) This method of DNP induced preconditioning could be used to decrease intimal thickening and restenosis after angioplasty, improve ischemia/reperfusion injury in organ and tissue transplantation, and improve surgical outcome of procedures that require temporary or prolonged occlusion of arterial blood flow.

musculocutaneous flap = musculocutaneous flap skin survival after DNP; format: in vivo; settings: after induction of heat shock proteins by DNP (FIG. 23)
Source text: as §1

In the case of O=[N+]([O-])c1ccc(O)c([N+](=O)[O-])c1 [DNP, 2,4-dinitrophenol], the “proliferative arterial catheter balloon injury” value [1] was “limitation of proliferative arterial catheter balloon injury” and the “musculocutaneous flap skin survival” value (musculocutaneous flap) was “improved musculocutaneous flap skin survival”.
